Reference: patent US20260240878A1, “PTP1B/TC-PTP DUAL INHIBITORS AND PROTEIN DEGRADERS” (Purdue Research Foundation, priority 2023, published 2026)
*1 amine or outer side, *2 acyl side, *3 side chain or, on linkers, in order; H or OH if unused. Where a SMILES comes first, the peptide text is derived from it. [ ]: non-standard residue; d: D form. The star is where a group is joined. NHBn(4-(4-Me-thiazol-5-yl)) = Cc1ncsc1-c1ccc(CN*)cc1; NHCH2(1,3-C6H4)CH2CO = O=C(Cc1cccc(CN[*:1])c1)[*:2]; F2Pmp = N[C@@H](Cc1ccc(C(F)(F)P(=O)(O)O)cc1)C(=O)O; Phenylacetyl(4-OH,3-OMe) = COc1cc(CC(=O)*)ccc1O; Benzoyl(3-Br,4-Me) = Cc1ccc(C(=O)*)cc1Br; Hyp = O=C(O)[C@@H]1C[C@@H](O)CN1; X2 = O=C(CCN1CCN([*:1])CC1)[*:2]; X3 = O=C(CCC1CCN([*:1])CC1)[*:2]; Tle = CC(C)(C)[C@H](N)C(=O)O; 4Amb = NCc1ccc(C(=O)O)cc1; PEG1 = NCCOCCC(=O)O

How the values were obtained:
TC-PTP [1] = molecular target: T1, TC-PTP (Homo sapiens, UniProt P17706); assay: Degradation assay in HEK293 cells (immunoblotting); assay type: cell-based; parameters: endogenous in cells; host or cells: HEK293; settings: 0.2 μM degrader, 16 hours, read-out: % Protein Degradation TC-PTP
T1 sequence (P17706 1-415): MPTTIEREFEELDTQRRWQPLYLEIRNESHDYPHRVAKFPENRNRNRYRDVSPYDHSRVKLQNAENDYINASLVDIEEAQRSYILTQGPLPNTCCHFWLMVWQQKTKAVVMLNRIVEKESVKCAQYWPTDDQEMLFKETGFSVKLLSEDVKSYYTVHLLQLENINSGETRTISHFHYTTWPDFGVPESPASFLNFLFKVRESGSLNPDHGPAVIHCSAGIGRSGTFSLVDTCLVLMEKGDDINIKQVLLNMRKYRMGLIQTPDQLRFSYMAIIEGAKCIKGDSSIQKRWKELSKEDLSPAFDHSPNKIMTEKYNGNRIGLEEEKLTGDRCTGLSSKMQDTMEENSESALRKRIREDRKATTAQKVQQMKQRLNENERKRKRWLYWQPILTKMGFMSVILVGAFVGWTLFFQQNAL
Method: (§1) HEK293. MIAPaCa-2, HepG2, U2OS, H116, MEF, B16F10, and MC38 cells, were grown in DMEM, while Jurkat and H358 cells were grown in RPMI 1640 supplemented with 10% fetal bovine serum, penicillin (50 units/mL), and streptomycin (50 μg/mL) in a 37° C. incubator containing 5% CO2. 20 ng/ml human (Biolegend #713906) or mouse (Biolegend #714006) Interferon-γ were used for JAK/STAT pathway stimulation.
(§2) Tissues or cultured cells were lysed with ice-cold lysis buffer (50 mM Tris (pH 8.0, 150 mM NaCl, 10% Glycerol, 1% Triton-X-100) supplied with phosphatase inhibitor (Bimake) and protease inhibitor mixture (Roche Applied Science). Equal amounts of protein were resolved by SDS-PAGE, transferred to nitrocellulose membrane, and subjected to immunoblotting. Antibodies used in this study include anti-following proteins: pSTAT1^Tyr701 (Cell Signaling Technology #9167, 1:3000), GAPDH (Cell Signaling Technology #97166, 1:5000), pJAK1^Tyr1034/1035 (Cell Signaling Technology #74129, 1:1000), pJAK2^Tyr1007/1008 (Cell Signaling Technology #3776, 1:1000), TC-PTP (Abcam #ab180764, 1:3000). PTP1B (Abcam #ab244207, 1:1500).
(§3) Degradation assay was conducted in HEK293 cells with 1 μM degrader and 24 hours incubation.
(§4) The degradation assay was conducted in HEK293 cells with 0.2 μM degrader and 16 hours incubation.

PTP1B [2] = molecular target: T2, PTP1B (Homo sapiens, UniProt P18031); assay: Degradation assay in HEK293 cells (immunoblotting); assay type: cell-based; parameters: endogenous in cells; host or cells: HEK293; settings: 0.2 μM degrader, 16 hours
T2 sequence (P18031 1-435): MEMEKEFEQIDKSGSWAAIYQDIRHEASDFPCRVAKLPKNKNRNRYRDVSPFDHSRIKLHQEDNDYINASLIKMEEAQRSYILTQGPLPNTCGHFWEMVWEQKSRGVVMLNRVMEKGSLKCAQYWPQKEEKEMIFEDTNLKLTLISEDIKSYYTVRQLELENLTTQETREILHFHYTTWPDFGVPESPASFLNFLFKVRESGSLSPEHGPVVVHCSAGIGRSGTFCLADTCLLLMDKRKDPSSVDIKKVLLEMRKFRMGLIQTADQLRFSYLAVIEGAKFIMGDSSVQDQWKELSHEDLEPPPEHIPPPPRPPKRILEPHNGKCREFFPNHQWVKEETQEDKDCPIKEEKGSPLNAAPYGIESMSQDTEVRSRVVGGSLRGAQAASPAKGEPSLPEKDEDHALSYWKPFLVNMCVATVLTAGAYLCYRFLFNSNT
Method: as §1, §2, §3, §4

TC-PTP [3] = molecular target: T1, TC-PTP; assay: PTP activity assay with pNPP substrate (IC50, Ki, mode of inhibition); assay type: biochemical; settings: pNPP 2 mM, pH 7.0, 25° C.; read-out: IC50, nM TC-PTP
Method: (§5) PTP activity was assayed using p-nitrophenyl phosphate (pNPP) as a substrate in DMG buffer (50 mM DMG. pH 7.0, 1 mM EDTA, 150 mM NaCl, 2 mM DTT, 0.1 mg/mL BSA) at 25° C. The assays were performed in 96-well plates. Normally, to determine the IC50 values, the reaction was initiated by the addition of enzyme (for PTP1B and TCPTP, the final concentration was 0.4 nM, for other PTPs, the final concentration was 10 nM) to a reaction mixture (0.2 mL) containing 2 mM (Km for the substrate) pNPP with various concentrations of inhibitors (see FIG. 1). The reaction rate was measured using a SpectraMax Plus 384 Microplate Spectrophotometer (Molecular Devices). Data were fitted using SigmaPlot Enzyme Kinetics Module (Systat Software, Inc.). To determine the mode of inhibition, the reactions were initiated by the addition of enzyme (final concentration for TC-PTP and PTP1B was 0.4 nM) to the reaction mixtures (0.2 mL) containing various concentrations of pNPP with different concentrations of the inhibitor. Data were fitted using SigmaPlot Enzyme Kinetics Module (Systat Software. Inc.).

PTP1B [4] = molecular target: T2, PTP1B; assay: as above; assay type: biochemical; settings: pNPP 2 mM, pH 7.0, 25° C.; read-out: IC50, nM PTP1B
Method: as §5

| SMILES | percent TC-PTP degradation at 0.2 µM (TC-PTP [1]) | % Protein Degradation PTP1B (PTP1B [2]) | IC50 (TC-PTP [3]) | IC50 (PTP1B [4]) |
| --- | --- | --- | --- | --- |
| COc1cc(CC(=O)N[C@@H](Cc2ccccc2)C(=O)N[C@@H](Cc2ccc(C(F)(F)P(=O)(O)O)cc2)C(=O)N[C@@H](CCCCNC(=O)c2ccc(C)c(Br)c2)C(=O)NCCOCCC(=O)N[C@H](C(=O)N2C[C@H](O)C[C@H]2C(=O)NCc2ccc(-c3scnc3C)cc2)C(C)(C)C)ccc1O [Compound 28, ((4-((2S,5S,15S)-5-(4-(3-bromo-4-methylbenzamido)butyl)-15-((2S,4R)-4-hydroxy-2-((4-(4-methylthiazol-5-yl)benzyl)carbamoyl)pyrrolidine-1-carbonyl)-2-((S)-2-(2-(4-hydroxy-3-methoxyphenyl)acetamido)-3-phenylpropanamido)-16,16-dimethyl-3,6,13-trioxo-10-oxa-4,7,14-triazaheptadecyl)phenyl)difluoromethyl)phosphonic Acid] ({Phenylacetyl(4-OH,3-OMe)}-F[F2Pmp]K(Benzoyl(3-Br,4-Me))[PEG1][Tle][Hyp]-{NHBn(4-(4-Me-thiazol-5-yl))}) | 47% | 45% | 11.2 ± 1.3 nM | 15.4 ± 3.3 nM |
| COc1cc(CC(=O)N[C@@H](Cc2ccccc2)C(=O)N[C@@H](Cc2ccc(C(F)(F)P(=O)(O)O)cc2)C(=O)N[C@@H](CCCCNC(=O)c2ccc(C)c(Br)c2)C(=O)NCc2cccc(CC(=O)N[C@H](C(=O)N3C[C@H](O)C[C@H]3C(=O)NCc3ccc(-c4scnc4C)cc3)C(C)(C)C)c2)ccc1O [Compound 48, ((4-((S)-3-(((S)-6-(3-bromo-4-methylbenzamido)-1-((3-(2-(((S)-1-((2S,4R)-4-hydroxy-2-((4-(4-methylthiazol-5-yl)benzyl)carbamoyl)pyrrolidin-1-yl)-3,3-dimethyl-1-oxobutan-2-yl)amino)-2-oxoethyl)benzyl)amino)-1-oxohexan-2-yl)amino)-2-((S)-2-(2-(4-hydroxy-3-methoxyphenyl)acetamido)-3-phenylpropanamido)-3-oxopropyl)phenyl)difluoromethyl)phosphonic Acid] ({Phenylacetyl(4-OH,3-OMe)}-F[F2Pmp]K(Benzoyl(3-Br,4-Me))[NHCH2(1,3-C6H4)CH2CO][Tle][Hyp]-{NHBn(4-(4-Me-thiazol-5-yl))}) | 70% | 75% | 11.5 ± 0.6 nM | 16.7 ± 3.3 nM |
| COc1cc(CC(=O)N[C@@H](Cc2ccccc2)C(=O)N[C@@H](Cc2ccc(C(F)(F)P(=O)(O)O)cc2)C(=O)N[C@@H](CCCCNC(=O)c2ccc(C)c(Br)c2)C(=O)NCc2ccc(C(=O)N[C@H](C(=O)N3C[C@H](O)C[C@H]3C(=O)NCc3ccc(-c4scnc4C)cc3)C(C)(C)C)cc2)ccc1O [Compound 54, ((4-((S)-3-(((S)-6-(3-bromo-4-methylbenzamido)-1-((4-(((S)-1-((2S,4R)-4-hydroxy-2-((4-(4-methylthiazol-5-yl)benzyl)carbamoyl)pyrrolidin-1-yl)-3,3-dimethyl-1-oxobutan-2-yl)carbamoyl)benzyl)amino)-1-oxohexan-2-yl)amino)-2-((S)-2-(2-(4-hydroxy-3-methoxyphenyl)acetamido)-3-phenylpropanamido)-3-oxopropyl)phenyl)difluoromethyl)phosphonic Acid] ({Phenylacetyl(4-OH,3-OMe)}-F[F2Pmp]K(Benzoyl(3-Br,4-Me))[4Amb][Tle][Hyp]-{NHBn(4-(4-Me-thiazol-5-yl))}) | 37% | 24% | 21.3 ± 1.7 nM | 51.2 ± 14.4 nM |
| COc1cc(CC(=O)N[C@@H](Cc2ccccc2)C(=O)N[C@@H](Cc2ccc(C(F)(F)P(=O)(O)O)cc2)C(=O)N[C@@H](CCCCNC(=O)c2ccc(C)c(Br)c2)C(=O)N2CCN(CCC(=O)N[C@H](C(=O)N3C[C@H](O)C[C@H]3C(=O)NCc3ccc(-c4scnc4C)cc3)C(C)(C)C)CC2)ccc1O [Compound 56, ((4-((S)-3-(((S)-6-(3-bromo-4-methylbenzamido)-1-(4-(3-(((S)-1-((2S,4R)-4-hydroxy-2-((4-(4-methylthiazol-5-yl)benzyl)carbamoyl)pyrrolidin-1-yl)-3,3-dimethyl-1-oxobutan-2-yl)amino)-3-oxopropyl)piperazin-1-yl)-1-oxohexan-2-yl)amino)-2-((S)-2-(2-(4-hydroxy-3-methoxyphenyl)acetamido)-3-phenylpropanamido)-3-oxopropyl)phenyl)difluoromethyl)phosphonic Acid] ({Phenylacetyl(4-OH,3-OMe)}-F[F2Pmp]K(Benzoyl(3-Br,4-Me))[X2][Tle][Hyp]-{NHBn(4-(4-Me-thiazol-5-yl))}) | 14% | 30% | 12 ± 0.8 nM | 13.7 ± 1.9 nM |
| COc1cc(CC(=O)N[C@@H](Cc2ccccc2)C(=O)N[C@@H](Cc2ccc(C(F)(F)P(=O)(O)O)cc2)C(=O)N[C@@H](CCCCNC(=O)c2ccc(C)c(Br)c2)C(=O)N2CCC(CCC(=O)N[C@H](C(=O)N3C[C@H](O)C[C@H]3C(=O)NCc3ccc(-c4scnc4C)cc3)C(C)(C)C)CC2)ccc1O [Compound 58, ((4-((S)-3-(((S)-6-(3-bromo-4-methylbenzamido)-1-(4-(3-(((S)-1-((2S,4R)-4-hydroxy-2-((4-(4-methylthiazol-5-yl)benzyl)carbamoyl)pyrrolidin-1-yl)-3,3-dimethyl-1-oxobutan-2-yl)amino)-3-oxopropyl)piperidin-1-yl)-1-oxohexan-2-yl)amino)-2-((S)-2-(2-(4-hydroxy-3-methoxyphenyl)acetamido)-3-phenylpropanamido)-3-oxopropyl)phenyl)difluoromethyl)phosphonic Acid] ({Phenylacetyl(4-OH,3-OMe)}-F[F2Pmp]K(Benzoyl(3-Br,4-Me))[X3][Tle][Hyp]-{NHBn(4-(4-Me-thiazol-5-yl))}) | 32% | 26% | 8 ± 0.7 nM | 8.9 ± 0.5 nM |
